US9174994B2, “Enhanced treatment regimens using mTor inhibitors” (INTELLIKINE LLC, priority 2011, dated 2015)

Legend:
[1] = Phase I clinical trial: plasma pharmacokinetics; type: in vivo, human
Method: Adult patients with histologically confirmed advanced solid tumors were enrolled in a 3+3 dose escalation Phase I study evaluating 3 intermittent schedules of administration for compound A: QW (once weekly), QD×3d QW (3 days on 4 days off), and QD×5d QW (5 days on 2 days off), in comparison with daily dosing (QD). Safety, maximum tolerated dose (MTD), pharmacokinetics (PK) and preliminary antitumor activity were evaluated.

[2] = Additional study: grade 3 or greater treatment-emergent adverse events; type: in vivo, human

CC(C)n1nc(-c2ccc3oc(N)nc3c2)c2c(N)ncnc21 [compound A]
Time per week (hrs) above 100 nM plasma conc. ([1]; 6 mg QD): 20 h
Time per week (hrs) above 100 nM plasma conc. ([1]; 10 mg Q5D): 25 h
Time per week (hrs) above 100 nM plasma conc. ([1]; 13 mg Q5D): 30 h
Time per week (hrs) above 100 nM plasma conc. ([1]; 16 mg Q3D): 30 h
Time per week (hrs) above 100 nM plasma conc. ([1]; 20 mg Q3D): 35 h
Time per week (hrs) above 100 nM plasma conc. ([1]; 30 mg QW): 15 h
Time per week (hrs) above 100 nM plasma conc. ([1]; 40 mg QW): 20 h
Plasma exposures (Cmax and AUC0-24): dose dependence ([1]; following oral doses): dose-linear plasma PK
Grade 3 or greater TEAE: Anaemia ([2]; QD Dosing (N = 29)): 1 (3%)
Grade 3 or greater TEAE: Aspartate aminotransferase increase ([2]; QD Dosing (N = 29)): 0 (0%)
Grade 3 or greater TEAE: Asthenia ([2]; QD Dosing (N = 29)): 1 (3%)
Grade 3 or greater TEAE: Blood creatinine increase ([2]; QD Dosing (N = 29)): 0 (0%)
Grade 3 or greater TEAE: Deep vein thrombosis ([2]; QD Dosing (N = 29)): 0 (0%)
Grade 3 or greater TEAE: Diarrhoea ([2]; QD Dosing (N = 29)): 1 (3%)
Grade 3 or greater TEAE: Disease progression ([2]; QD Dosing (N = 29)): 0 (0%)
Grade 3 or greater TEAE: Fatigue ([2]; QD Dosing (N = 29)): 0 (0%)
Grade 3 or greater TEAE: Gamma-glutamyltransferase increase ([2]; QD Dosing (N = 29)): 0 (0%)
Grade 3 or greater TEAE: Hyperglycaemia ([2]; QD Dosing (N = 29)): 4 (14%)
Grade 3 or greater TEAE: Hypokalaemia ([2]; QD Dosing (N = 29)): 2 (7%)
Grade 3 or greater TEAE: Hyponatraemia ([2]; QD Dosing (N = 29)): 2 (7%)
Grade 3 or greater TEAE: Hypophsphataemia ([2]; QD Dosing (N = 29)): 0 (0%)
Grade 3 or greater TEAE: Lymphopenia ([2]; QD Dosing (N = 29)): 2 (7%)
Grade 3 or greater TEAE: Mucosal Inflammation ([2]; QD Dosing (N = 29)): 0 (0%)
Grade 3 or greater TEAE: Muscular weakness ([2]; QD Dosing (N = 29)): 0 (0%)
Grade 3 or greater TEAE: Nausea ([2]; QD Dosing (N = 29)): 0 (0%)
Grade 3 or greater TEAE: Neutropenia ([2]; QD Dosing (N = 29)): 0 (0%)
Grade 3 or greater TEAE: Pruritus ([2]; QD Dosing (N = 29)): 2 (7%)
Grade 3 or greater TEAE: Rash ([2]; QD Dosing (N = 29)): 7 (24%)
Grade 3 or greater TEAE: Thrombocytopenia ([2]; QD Dosing (N = 29)): 2 (7%)
Grade 3 or greater TEAE: Vomiting ([2]; QD Dosing (N = 29)): 0 (0%)
Patients Reporting at least one Grade 3 or greater TEAE ([2]; QD Dosing (N = 29)): 17 (59%)
Grade 3 or greater TEAE: Anaemia ([2]; QDx3d QW (N = 25)): 2 (8%)
Grade 3 or greater TEAE: Aspartate aminotransferase increase ([2]; QDx3d QW (N = 25)): 0 (0%)
Grade 3 or greater TEAE: Asthenia ([2]; QDx3d QW (N = 25)): 1 (4%)
Grade 3 or greater TEAE: Blood creatinine increase ([2]; QDx3d QW (N = 25)): 2 (8%)
Grade 3 or greater TEAE: Deep vein thrombosis ([2]; QDx3d QW (N = 25)): 1 (4%)
Grade 3 or greater TEAE: Diarrhoea ([2]; QDx3d QW (N = 25)): 1 (4%)
Grade 3 or greater TEAE: Disease progression ([2]; QDx3d QW (N = 25)): 0 (0%)
Grade 3 or greater TEAE: Fatigue ([2]; QDx3d QW (N = 25)): 0 (0%)
Grade 3 or greater TEAE: Gamma-glutamyltransferase increase ([2]; QDx3d QW (N = 25)): 1 (4%)
Grade 3 or greater TEAE: Hyperglycaemia ([2]; QDx3d QW (N = 25)): 4 (16%)
Grade 3 or greater TEAE: Hypokalaemia ([2]; QDx3d QW (N = 25)): 0 (0%)
Grade 3 or greater TEAE: Hyponatraemia ([2]; QDx3d QW (N = 25)): 0 (0%)
Grade 3 or greater TEAE: Hypophsphataemia ([2]; QDx3d QW (N = 25)): 3 (12%)
Grade 3 or greater TEAE: Lymphopenia ([2]; QDx3d QW (N = 25)): 2 (8%)
Grade 3 or greater TEAE: Mucosal Inflammation ([2]; QDx3d QW (N = 25)): 4 (16%)
Grade 3 or greater TEAE: Muscular weakness ([2]; QDx3d QW (N = 25)): 1 (4%)
Grade 3 or greater TEAE: Nausea ([2]; QDx3d QW (N = 25)): 1 (4%)
Grade 3 or greater TEAE: Neutropenia ([2]; QDx3d QW (N = 25)): 0 (0%)
Grade 3 or greater TEAE: Pruritus ([2]; QDx3d QW (N = 25)): 1 (4%)
Grade 3 or greater TEAE: Rash ([2]; QDx3d QW (N = 25)): 1 (4%)
Grade 3 or greater TEAE: Thrombocytopenia ([2]; QDx3d QW (N = 25)): 0 (0%)
Grade 3 or greater TEAE: Vomiting ([2]; QDx3d QW (N = 25)): 1 (4%)
Patients Reporting at least one Grade 3 or greater TEAE ([2]; QDx3d QW (N = 25)): 18 (72%)
Grade 3 or greater TEAE: Anaemia ([2]; QDx5d QW (N = 15)): 1 (7%)
Grade 3 or greater TEAE: Aspartate aminotransferase increase ([2]; QDx5d QW (N = 15)): 1 (7%)
Grade 3 or greater TEAE: Asthenia ([2]; QDx5d QW (N = 15)): 1 (7%)
Grade 3 or greater TEAE: Blood creatinine increase ([2]; QDx5d QW (N = 15)): 0 (0%)
Grade 3 or greater TEAE: Deep vein thrombosis ([2]; QDx5d QW (N = 15)): 0 (0%)
Grade 3 or greater TEAE: Diarrhoea ([2]; QDx5d QW (N = 15)): 0 (0%)
Grade 3 or greater TEAE: Disease progression ([2]; QDx5d QW (N = 15)): 0 (0%)
Grade 3 or greater TEAE: Fatigue ([2]; QDx5d QW (N = 15)): 2 (13%)
Grade 3 or greater TEAE: Gamma-glutamyltransferase increase ([2]; QDx5d QW (N = 15)): 1 (7%)
Grade 3 or greater TEAE: Hyperglycaemia ([2]; QDx5d QW (N = 15)): 1 (7%)
Grade 3 or greater TEAE: Hypokalaemia ([2]; QDx5d QW (N = 15)): 0 (0%)
Grade 3 or greater TEAE: Hyponatraemia ([2]; QDx5d QW (N = 15)): 0 (0%)
Grade 3 or greater TEAE: Hypophsphataemia ([2]; QDx5d QW (N = 15)): 2 (13%)
Grade 3 or greater TEAE: Lymphopenia ([2]; QDx5d QW (N = 15)): 1 (7%)
Grade 3 or greater TEAE: Mucosal Inflammation ([2]; QDx5d QW (N = 15)): 3 (20%)
Grade 3 or greater TEAE: Muscular weakness ([2]; QDx5d QW (N = 15)): 0 (0%)
Grade 3 or greater TEAE: Nausea ([2]; QDx5d QW (N = 15)): 1 (7%)
Grade 3 or greater TEAE: Neutropenia ([2]; QDx5d QW (N = 15)): 1 (7%)
Grade 3 or greater TEAE: Pruritus ([2]; QDx5d QW (N = 15)): 0 (0%)
Grade 3 or greater TEAE: Rash ([2]; QDx5d QW (N = 15)): 1 (7%)
Grade 3 or greater TEAE: Thrombocytopenia ([2]; QDx5d QW (N = 15)): 0 (0%)
Grade 3 or greater TEAE: Vomiting ([2]; QDx5d QW (N = 15)): 1 (7%)
Patients Reporting at least one Grade 3 or greater TEAE ([2]; QDx5d QW (N = 15)): 8 (53%)
Grade 3 or greater TEAE: Anaemia ([2]; QW Dosing (N = 22)): 2 (9%)
Grade 3 or greater TEAE: Aspartate aminotransferase increase ([2]; QW Dosing (N = 22)): 1 (5%)
Grade 3 or greater TEAE: Asthenia ([2]; QW Dosing (N = 22)): 1 (5%)
Grade 3 or greater TEAE: Blood creatinine increase ([2]; QW Dosing (N = 22)): 0 (0%)
Grade 3 or greater TEAE: Deep vein thrombosis ([2]; QW Dosing (N = 22)): 1 (5%)
Grade 3 or greater TEAE: Diarrhoea ([2]; QW Dosing (N = 22)): 1 (5%)
Grade 3 or greater TEAE: Disease progression ([2]; QW Dosing (N = 22)): 2 (9%)
Grade 3 or greater TEAE: Fatigue ([2]; QW Dosing (N = 22)): 1 (5%)
Grade 3 or greater TEAE: Gamma-glutamyltransferase increase ([2]; QW Dosing (N = 22)): 1 (5%)
Grade 3 or greater TEAE: Hyperglycaemia ([2]; QW Dosing (N = 22)): 0 (0%)
Grade 3 or greater TEAE: Hypokalaemia ([2]; QW Dosing (N = 22)): 1 (5%)
Grade 3 or greater TEAE: Hyponatraemia ([2]; QW Dosing (N = 22)): 0 (0%)
Grade 3 or greater TEAE: Hypophsphataemia ([2]; QW Dosing (N = 22)): 0 (0%)
Grade 3 or greater TEAE: Lymphopenia ([2]; QW Dosing (N = 22)): 1 (5%)
Grade 3 or greater TEAE: Mucosal Inflammation ([2]; QW Dosing (N = 22)): 0 (0%)
Grade 3 or greater TEAE: Muscular weakness ([2]; QW Dosing (N = 22)): 1 (5%)
Grade 3 or greater TEAE: Nausea ([2]; QW Dosing (N = 22)): 0 (0%)
Grade 3 or greater TEAE: Neutropenia ([2]; QW Dosing (N = 22)): 1 (5%)
Grade 3 or greater TEAE: Pruritus ([2]; QW Dosing (N = 22)): 0 (0%)
Grade 3 or greater TEAE: Rash ([2]; QW Dosing (N = 22)): 0 (0%)
Grade 3 or greater TEAE: Thrombocytopenia ([2]; QW Dosing (N = 22)): 0 (0%)
Grade 3 or greater TEAE: Vomiting ([2]; QW Dosing (N = 22)): 1 (5%)
Patients Reporting at least one Grade 3 or greater TEAE ([2]; QW Dosing (N = 22)): 10 (45%)
Grade 3 or greater TEAE: Anaemia ([2]; Total (N = 91)): 6 (7%)
Grade 3 or greater TEAE: Aspartate aminotransferase increase ([2]; Total (N = 91)): 2 (2%)
Grade 3 or greater TEAE: Asthenia ([2]; Total (N = 91)): 4 (4%)
Grade 3 or greater TEAE: Blood creatinine increase ([2]; Total (N = 91)): 2 (2%)
Grade 3 or greater TEAE: Deep vein thrombosis ([2]; Total (N = 91)): 2 (2%)
Grade 3 or greater TEAE: Diarrhoea ([2]; Total (N = 91)): 3 (3%)
Grade 3 or greater TEAE: Disease progression ([2]; Total (N = 91)): 2 (2%)
Grade 3 or greater TEAE: Fatigue ([2]; Total (N = 91)): 3 (3%)
Grade 3 or greater TEAE: Gamma-glutamyltransferase increase ([2]; Total (N = 91)): 3 (3%)
Grade 3 or greater TEAE: Hyperglycaemia ([2]; Total (N = 91)): 9 (10%)
Grade 3 or greater TEAE: Hypokalaemia ([2]; Total (N = 91)): 3 (3%)
Grade 3 or greater TEAE: Hyponatraemia ([2]; Total (N = 91)): 2 (2%)
Grade 3 or greater TEAE: Hypophsphataemia ([2]; Total (N = 91)): 5 (5%)
Grade 3 or greater TEAE: Lymphopenia ([2]; Total (N = 91)): 6 (7%)
Grade 3 or greater TEAE: Mucosal Inflammation ([2]; Total (N = 91)): 7 (8%)
Grade 3 or greater TEAE: Muscular weakness ([2]; Total (N = 91)): 2 (2%)
Grade 3 or greater TEAE: Nausea ([2]; Total (N = 91)): 2 (2%)
Grade 3 or greater TEAE: Neutropenia ([2]; Total (N = 91)): 2 (2%)
Grade 3 or greater TEAE: Pruritus ([2]; Total (N = 91)): 3 (3%)
Grade 3 or greater TEAE: Rash ([2]; Total (N = 91)): 9 (10%)
Grade 3 or greater TEAE: Thrombocytopenia ([2]; Total (N = 91)): 2 (2%)
Grade 3 or greater TEAE: Vomiting ([2]; Total (N = 91)): 3 (3%)
Patients Reporting at least one Grade 3 or greater TEAE ([2]; Total (N = 91)): 53 (58%)
